ChEMBL document CHEMBL1152776, “Facile synthesis of diazido-functionalized biaryl compounds as radioisotope-free photoaffinity probes by Suzuki-Miyaura coupling” (Bioorg Med Chem, 2009)
One block for each compound: values may come before it. The source made the active and inactive calls. The rule behind the calls is not given here.

Assays:
[1] = molecular target: Ryanodine receptor 1 (Homo sapiens) (UniProt P21817); assay: Binding affinity to RyR1 by photolabeling experiment
[2] = test system: Muscle tissue; assay: Inhibition of physiological calcium release in mouse sarcoplasmic reticular skeletal muscle; type: functional, tissue-based
[3] = organism: Mus musculus; assay: Inhibition of Ca2+-induced calcium release in mouse sarcoplasmic reticular skeletal muscle; type: functional
[4] = test system: Muscle tissue; assay: Inhibition of physiological calcium release in mouse sarcoplasmic reticular skeletal muscle at 50 uM; type: functional, tissue-based
[5] = organism: Mus musculus; assay: Inhibition of Ca2+-induced calcium release in mouse sarcoplasmic reticular skeletal muscle at 50 uM; type: functional
[6] = tested as the 125I-labelled form

Chain of Ryanodine receptor 1 (Homo sapiens) (P21817 whole entry): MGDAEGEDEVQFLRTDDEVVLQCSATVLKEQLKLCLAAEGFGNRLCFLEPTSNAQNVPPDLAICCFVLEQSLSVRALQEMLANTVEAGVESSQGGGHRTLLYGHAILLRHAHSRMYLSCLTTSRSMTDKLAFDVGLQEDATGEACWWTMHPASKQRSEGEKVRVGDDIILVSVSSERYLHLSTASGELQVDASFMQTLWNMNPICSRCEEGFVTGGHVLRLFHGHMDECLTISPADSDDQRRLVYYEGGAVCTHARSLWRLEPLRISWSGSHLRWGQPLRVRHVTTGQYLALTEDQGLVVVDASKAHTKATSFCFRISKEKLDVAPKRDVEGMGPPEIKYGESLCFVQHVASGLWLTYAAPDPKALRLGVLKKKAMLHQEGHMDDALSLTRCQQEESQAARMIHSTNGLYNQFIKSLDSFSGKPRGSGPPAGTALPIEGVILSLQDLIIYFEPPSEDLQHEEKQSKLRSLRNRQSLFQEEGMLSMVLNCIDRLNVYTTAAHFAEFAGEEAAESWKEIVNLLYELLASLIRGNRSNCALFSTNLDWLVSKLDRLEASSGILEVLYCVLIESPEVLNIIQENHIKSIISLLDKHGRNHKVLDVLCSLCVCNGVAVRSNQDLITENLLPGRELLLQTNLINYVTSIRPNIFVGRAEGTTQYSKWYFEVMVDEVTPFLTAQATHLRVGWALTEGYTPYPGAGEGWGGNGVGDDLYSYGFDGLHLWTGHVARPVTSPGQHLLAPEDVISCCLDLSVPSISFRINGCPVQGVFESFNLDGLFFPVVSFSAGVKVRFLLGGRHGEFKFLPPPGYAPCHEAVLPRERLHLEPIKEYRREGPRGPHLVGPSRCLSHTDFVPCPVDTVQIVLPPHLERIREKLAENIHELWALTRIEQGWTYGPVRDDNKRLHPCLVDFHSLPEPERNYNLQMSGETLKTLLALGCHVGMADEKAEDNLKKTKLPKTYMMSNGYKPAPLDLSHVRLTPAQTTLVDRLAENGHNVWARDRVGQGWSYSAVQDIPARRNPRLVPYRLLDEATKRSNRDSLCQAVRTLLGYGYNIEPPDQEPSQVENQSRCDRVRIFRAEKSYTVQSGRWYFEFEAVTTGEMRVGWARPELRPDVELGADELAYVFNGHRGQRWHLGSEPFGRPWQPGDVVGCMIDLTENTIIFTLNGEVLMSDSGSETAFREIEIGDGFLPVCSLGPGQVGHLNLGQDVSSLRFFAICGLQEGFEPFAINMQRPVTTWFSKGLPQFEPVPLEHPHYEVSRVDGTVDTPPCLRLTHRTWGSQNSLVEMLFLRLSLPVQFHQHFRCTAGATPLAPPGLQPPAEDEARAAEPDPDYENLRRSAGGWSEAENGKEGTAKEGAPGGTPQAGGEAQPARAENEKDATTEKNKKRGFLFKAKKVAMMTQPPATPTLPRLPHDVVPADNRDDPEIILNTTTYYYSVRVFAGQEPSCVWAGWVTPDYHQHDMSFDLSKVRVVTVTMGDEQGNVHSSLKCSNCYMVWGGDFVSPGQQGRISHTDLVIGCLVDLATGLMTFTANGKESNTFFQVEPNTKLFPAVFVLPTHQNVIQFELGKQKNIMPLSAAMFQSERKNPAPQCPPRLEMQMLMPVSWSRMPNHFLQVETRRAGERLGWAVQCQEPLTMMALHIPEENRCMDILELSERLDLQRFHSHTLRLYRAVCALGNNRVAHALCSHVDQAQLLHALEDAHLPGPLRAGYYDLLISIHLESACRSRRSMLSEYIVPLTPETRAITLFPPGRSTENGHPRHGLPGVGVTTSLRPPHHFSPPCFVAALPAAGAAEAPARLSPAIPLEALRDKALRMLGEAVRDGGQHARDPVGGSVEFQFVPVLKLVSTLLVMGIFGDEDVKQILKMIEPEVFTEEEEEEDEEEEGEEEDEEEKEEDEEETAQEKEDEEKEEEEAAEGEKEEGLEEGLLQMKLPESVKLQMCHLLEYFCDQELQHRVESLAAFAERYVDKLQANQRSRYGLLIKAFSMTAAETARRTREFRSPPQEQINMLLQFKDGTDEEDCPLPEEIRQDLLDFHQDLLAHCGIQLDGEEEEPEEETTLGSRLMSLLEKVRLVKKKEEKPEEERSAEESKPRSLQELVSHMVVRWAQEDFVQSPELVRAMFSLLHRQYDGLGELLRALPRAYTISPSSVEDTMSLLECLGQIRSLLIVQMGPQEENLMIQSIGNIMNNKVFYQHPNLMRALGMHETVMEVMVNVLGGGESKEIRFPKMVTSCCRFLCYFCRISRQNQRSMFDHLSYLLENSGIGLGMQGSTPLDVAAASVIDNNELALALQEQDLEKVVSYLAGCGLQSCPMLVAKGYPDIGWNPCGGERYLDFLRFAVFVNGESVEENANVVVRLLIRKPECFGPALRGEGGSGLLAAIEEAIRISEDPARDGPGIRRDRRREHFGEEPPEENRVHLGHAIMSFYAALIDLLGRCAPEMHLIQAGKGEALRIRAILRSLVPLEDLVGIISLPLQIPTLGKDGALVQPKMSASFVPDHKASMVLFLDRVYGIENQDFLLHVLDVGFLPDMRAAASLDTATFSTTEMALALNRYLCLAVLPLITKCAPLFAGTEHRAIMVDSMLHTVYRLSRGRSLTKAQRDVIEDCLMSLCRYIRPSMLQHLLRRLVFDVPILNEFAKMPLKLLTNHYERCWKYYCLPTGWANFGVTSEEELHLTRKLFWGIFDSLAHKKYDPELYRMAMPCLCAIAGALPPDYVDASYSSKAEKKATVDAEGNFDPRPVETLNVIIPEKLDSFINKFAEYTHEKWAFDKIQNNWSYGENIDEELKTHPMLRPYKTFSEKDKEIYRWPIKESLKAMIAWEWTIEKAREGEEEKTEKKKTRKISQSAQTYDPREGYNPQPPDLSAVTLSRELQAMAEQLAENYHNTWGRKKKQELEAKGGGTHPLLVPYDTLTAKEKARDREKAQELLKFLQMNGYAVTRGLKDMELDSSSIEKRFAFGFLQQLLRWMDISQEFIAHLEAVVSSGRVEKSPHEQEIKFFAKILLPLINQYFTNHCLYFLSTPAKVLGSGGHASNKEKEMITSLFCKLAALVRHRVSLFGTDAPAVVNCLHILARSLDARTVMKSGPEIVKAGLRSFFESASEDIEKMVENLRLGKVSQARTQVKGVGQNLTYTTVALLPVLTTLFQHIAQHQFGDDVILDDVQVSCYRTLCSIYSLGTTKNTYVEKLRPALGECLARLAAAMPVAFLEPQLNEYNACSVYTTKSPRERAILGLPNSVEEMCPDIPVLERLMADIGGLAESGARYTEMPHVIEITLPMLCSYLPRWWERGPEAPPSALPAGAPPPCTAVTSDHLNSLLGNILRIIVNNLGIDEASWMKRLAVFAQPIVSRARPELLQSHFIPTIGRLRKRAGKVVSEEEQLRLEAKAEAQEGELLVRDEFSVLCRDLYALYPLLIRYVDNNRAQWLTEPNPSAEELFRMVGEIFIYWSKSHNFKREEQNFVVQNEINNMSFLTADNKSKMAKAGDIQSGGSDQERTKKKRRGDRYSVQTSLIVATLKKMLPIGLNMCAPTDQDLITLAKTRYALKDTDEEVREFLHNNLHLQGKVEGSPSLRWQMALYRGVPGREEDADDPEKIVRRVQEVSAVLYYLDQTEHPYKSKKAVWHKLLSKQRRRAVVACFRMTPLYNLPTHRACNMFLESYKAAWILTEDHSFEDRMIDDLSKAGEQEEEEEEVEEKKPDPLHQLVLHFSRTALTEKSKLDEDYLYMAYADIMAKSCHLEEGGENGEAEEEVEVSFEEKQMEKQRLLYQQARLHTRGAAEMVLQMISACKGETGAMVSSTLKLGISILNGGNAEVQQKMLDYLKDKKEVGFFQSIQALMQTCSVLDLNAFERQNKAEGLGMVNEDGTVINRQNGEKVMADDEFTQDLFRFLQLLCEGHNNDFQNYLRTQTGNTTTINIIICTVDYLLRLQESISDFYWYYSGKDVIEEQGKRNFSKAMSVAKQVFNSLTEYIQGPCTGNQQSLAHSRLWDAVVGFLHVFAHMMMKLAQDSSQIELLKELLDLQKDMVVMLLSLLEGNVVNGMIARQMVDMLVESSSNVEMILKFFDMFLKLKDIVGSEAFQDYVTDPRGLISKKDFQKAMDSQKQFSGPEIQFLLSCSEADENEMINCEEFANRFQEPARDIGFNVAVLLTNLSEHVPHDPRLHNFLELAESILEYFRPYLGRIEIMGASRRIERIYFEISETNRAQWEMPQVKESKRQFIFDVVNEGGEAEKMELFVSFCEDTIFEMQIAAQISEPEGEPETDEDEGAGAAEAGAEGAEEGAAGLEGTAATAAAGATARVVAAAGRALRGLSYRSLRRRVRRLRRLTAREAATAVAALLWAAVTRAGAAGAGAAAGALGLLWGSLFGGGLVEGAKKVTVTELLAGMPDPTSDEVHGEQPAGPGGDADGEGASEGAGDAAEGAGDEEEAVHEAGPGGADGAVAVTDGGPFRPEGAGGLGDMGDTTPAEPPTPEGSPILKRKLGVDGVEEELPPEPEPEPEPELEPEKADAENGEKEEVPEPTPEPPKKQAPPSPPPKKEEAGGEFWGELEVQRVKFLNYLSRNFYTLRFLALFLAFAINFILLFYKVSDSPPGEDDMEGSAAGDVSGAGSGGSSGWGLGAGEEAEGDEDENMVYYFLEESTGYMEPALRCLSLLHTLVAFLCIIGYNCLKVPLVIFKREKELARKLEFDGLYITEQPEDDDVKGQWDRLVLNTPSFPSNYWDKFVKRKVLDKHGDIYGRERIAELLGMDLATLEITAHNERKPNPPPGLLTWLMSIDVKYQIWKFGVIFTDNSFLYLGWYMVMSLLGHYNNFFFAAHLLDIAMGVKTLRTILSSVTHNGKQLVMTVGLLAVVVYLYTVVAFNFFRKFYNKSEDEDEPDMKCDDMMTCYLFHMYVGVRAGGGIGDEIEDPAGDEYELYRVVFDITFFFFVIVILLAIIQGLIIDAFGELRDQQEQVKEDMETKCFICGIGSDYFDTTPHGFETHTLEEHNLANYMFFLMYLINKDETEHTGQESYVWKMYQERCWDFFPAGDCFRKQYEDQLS

Activity [1]: inactive
SMILES: [N-]=[N+]=NCc1cc(CN2C(=O)CN(/N=C/c3ccc(-c4ccc([N+](=O)[O-])cc4)o3)C2=O)cc(N=[N+]=[N-])c1
Activity [2]: Active

Activity [1, 6]: inactive
SMILES: [N-]=[N+]=Nc1cc(I)cc(CN2C(=O)CN(/N=C/c3ccc(-c4ccc([N+](=O)[O-])cc4)o3)C2=O)c1
Activity [3, 6]: inactive
Activity [2, 6]: Active

SMILES: [N-]=[N+]=Nc1ccc(-c2ccc(/C=N/N3CC(=O)NC3=O)o2)cc1
Activity [4]: Active
Activity [5]: Active

SMILES: [N-]=[N+]=NCc1cc(N=[N+]=[N-])cc(-c2ccc(/C=N/N3CC(=O)NC3=O)o2)c1
Activity [3]: inactive
Activity [2]: Active
